Results: ChEMBL document CHEMBL1130459, “Conformational preference of the 6-acetyl group in novel anticonvulsant trans 4S-benzamido-benzo[b]pyran-3R-ols” (Bioorg Med Chem Lett, 1997)

Tests used:
Mus musculus [1] = species: Mus musculus; assay: Compound was evaluated for its binding affinity at the anticonvulsant binding site by displacement of [3H]- SB 204269 from mouse forebrain membranes; design: species or system Brain, Membrane
Mus musculus [2] = assay: Compound was tested in vivo for anticonvulsant activity in mouse MEST test (maximal electroshock seizure threshold) at a peroral dose of 10 mg/kg; type: functional; conditions: route oral
Mus musculus [3] = assay: Compound was tested in vivo for anticonvulsant activity in mouse MEST test (maximal electroshock seizure threshold) at a peroral dose of 30 mg/kg; type: functional; conditions: route oral

Structure (SMILES): CC(=O)c1ccc2c(c1C)[C@H](NC(=O)c1ccc(F)cc1)[C@@H](O)C(C)(C)O2
- Log Ki (Mus musculus [1]): -5.02

Structure (SMILES): CC(=O)c1ccc2c(c1)[C@H](NC(=O)c1ccc(F)c(Cl)c1)[C@@H](O)C(C)(C)O2
- Activity (Mus musculus [2]): 138%
- Log Ki (Mus musculus [1]): -7.91

Structure (SMILES): CC(=O)c1cc2c(cc1C)OC(C)(C)[C@H](O)[C@H]2NC(=O)c1ccc(F)cc1
- Log Ki (Mus musculus [1]): -6.15

Structure (SMILES): CC1(C)Oc2ccc3c(c2[C@H](NC(=O)c2ccc(F)cc2)[C@H]1O)CCCC3=O
- Log Ki (Mus musculus [1]): < -5

Structure (SMILES): CC1(C)Oc2cc3c(cc2[C@H](NC(=O)c2ccc(F)c(Cl)c2)[C@H]1O)C(=O)CCC3
- Log Ki (Mus musculus [1]): -7.6
- Activity (Mus musculus [3]): 98%

Structure (SMILES): CC(=O)c1ccc2c(c1)[C@H](NC(=O)c1ccc(F)cc1)[C@@H](O)C(C)(C)O2 [CARABERSAT]
- Log Ki (Mus musculus [1]): -7.32
